The results in this text go back to patent publication US20040029860A1, “Anti-proliferative drugs” (priority 2000, published 2004).

Like-named read-outs stand apart in the source and are kept apart here. A value given as a limit tells only on which side of the number the result lay.

In assay [1] the test system is mouse embryo whole brain culture. In words: primary tissue culture, whole brain. The format is cell-based. Conditions: read-out: IC50 whole brain tissue.
The test system of assay [2] is human prostate (LN-CapAp). In words: cell viability, prostate LN-Cap. The format is cell-based. To be noted: for inhibition of cell proliferation, LN-Cap (in words): 1 μM-100 μM, androgen dependent, FIG. 2A; for IC50: Table 1A, read-out: Viability IC50 Prostate LN-Cap. As for the experimental part: The effect of trifluoperazine and flupentixol was studied in two cell-lines of human prostate cancer: androgen dependent (LN-Cap) and androgen independent (PC-3).
(§1) Cyclic antidepressants at varying concentrations (between 10PM and 100 μM) was applied to neuroblastoma SH-SY5T, 3LL lung carcinoma, prostate (LN-CapAp), melanoma B16, and cell viability was determined as described above.

The subject of another assay is rat glioblastoma (C6). Nature of the assay: cell viability, glioma C6. The format is cell-based. Conditions: for IC50: Table 1A.
Assay [3] has as its system human neuroblastoma (SK-N-SH). Nature of the assay: cell viability (neutral red, Almar Blue, Hoechst dye), neuroblastoma SK-N-SH. The class given is cell-based.
In the next assay the test system is HaCat keratinocytes. In words: keratinocyte viability, Neutral red, HaCat. The class given is cell-based, human. Conditions: for cell viability HaCat (in words): 5-100 μM, 24 hr, Neutral red, FIG. 13A, 15A; for IC50: Homo sapiens, HaCaT. Here is the method:
(§2) The drugs were administered at concentrations within the range of 5-100 μM and cell viability was measured 24 hr post-administration by Neutral red staining. The efficiency of the agents against viability of the cell lines was evaluated also by comparison with two commonly used anticancer agents (Doxorubicin and 5-fluorouracil (5-FU)) at equimolar concentrations.

In another assay the test system is HaCat I5 keratinocytes. Nature of the assay: keratinocyte viability, Neutral red, HaCat I5. The class given is cell-based, human. Conditions: for cell viability HaCat I5 (in words): 5-100 μM, 24 hr, Neutral red, FIG. 13B, 15B; for IC50: Homo sapiens, HaCaT. Here is the method:
as §2

Assay [4] relates to human prostate cancer PC-3. In words: cell viability, prostate PC-3. The format is cell-based. To be noted: for inhibition of cell proliferation, PC-3 (in words): 1 μM-100 μM, androgen independent, FIG. 2B; for IC50: Table 1A, read-out: Viability IC50 Prostate PC3.
The next assay deals with different cell-lines. In words: mean IC50 over cell lines and therapeutic index.
Another assay deals with mouse melanoma (B-16). In words: cell viability, melanoma B16. The class given is cell-based. Here is the method:
as §1

Assay [5] deals with human neuroblastoma (SH-SY5T). Nature of the assay: cell viability, neuroblastoma SH-SY5T. The format is cell-based. To be noted: Homo sapiens. Here is the method: The effect of paroxetine on primary tissue cultures was also evaluated. […] The viability of the cells after treatment with paroxetine was determined by neutral red (NR) technology 24 hr. post treatment.
as §1

For the next assay, the system named is mouse lung sarcoma (3LL). In words: cell viability, lung 3LL. The format is cell-based. Conditions: for IC50: Mus musculus, Table 1B, read-out: Cell viability IC50 Lungs Sarcoma 3LL. As for the experimental part: In another experiment the effect of clotiapine at the same concentrations on the viability of mouse lung carcinoma (3LL) cells was determined.
as §1

Setting [6] is: primary culture, data not shown.
[7] abbreviates: Mus musculus, Table 1B, read-out: Cell viability IC50 Melanoma 16B.
[8] abbreviates: Mus musculus, Table 1A, read-out: Viability IC50 Melanoma B16.

Method for Melanoma B16 cells: Mice C57 black females ages 5-7 weeks were used. Mice were inoculated with Melanoma B16 cells and divided randomly (7-8/cage). Animals were divided into three groups:
1. Control-B16 cells with no therapy;
2. Treatment with doxorubicin 4 mg/kg i.p given once (3 days later).

Consider `Cc1nc2n(c(=O)c1CCN1CCC(c3noc4cc(F)ccc34)CC1)CCCC2` [Risperidone], for which the IC50 in [1] was > 200 µM.

Take `CCN1CCCC1CNC(=O)c1cc(S(N)(=O)=O)ccc1OC` (stereo not drawn) [Sulpiride]: in assay [2] (Table 1C), the “Viability IC50 Prostate LN-CapAp” value is “Non Toxic”. Further, in the assay on rat glioblastoma (C6) (Table 1C), the “Viability IC50 Glioma C6” value is “Non Toxic”. In addition, the IC50 in assay [1] (setting [6]) is > 200 µM. For the same compound, the “Viability IC50 Neuroblastoma SK-N-SH” value in assay [3] (Table 1C) was “Non Toxic”.

`COc1cccc2c1C(=O)c1c(O)c3c(c(O)c1C2=O)C[C@@](O)(C(=O)CO)C[C@@H]3O[C@H]1C[C@H](N)[C@H](O)[C@H](C)O1` [doxorubicin]: the “cell viability HaCat (in words)” value with HaCat keratinocytes is “same equimolar IC50 levels as for thioridazine”. In the assay on HaCat I5 keratinocytes, the “cell viability HaCat I5 (in words)” value is recorded as “only the HaCat (non tumorigenic) cells responded”. In the assay with Melanoma B16 cells (Table 2, of 7 total), the “Confluent lung metastases (number of mice)” value amounted to 3, the “Early death (number of mice)” value worked out at 2 and the “Non-confluent lung metastases (number of mice)” value worked out at 2. The “number of animals presenting non confluent lungs” value in the assay on Melanoma B16 cells (after 21 days, B16 control 0/7) is given as 2/7. Also, in the assay on Melanoma B16 cells (after 21 days, B16 controls 770+/−95), the lungs weight was determined as 538 ± 137 mg. Also, the “survival / animals died” value in the assay with Melanoma B16 cells (doxorubicin 4 mg/kg i.p. once, thioridazine 25-35 mg/kg/day via drinking water) is given as 2/7.

Regarding `OCCN1CCN(CC/C=C2/c3ccccc3Sc3ccc(C(F)(F)F)cc32)CC1` [Flupentixiol], the “inhibition of cell proliferation, LN-Cap (in words)” value in assay [2] is given as “effective in inhibition of cell proliferation”. In addition, the IC50 in [2] turned out to be 23 µM; in assay [4], 18 µM; with different cell-lines (read-out: IC50 Mean ± SD, Table 1A, mean over the cell lines), 18.2 ± 3.2 µM; in the assay with rat glioblastoma (C6), 14 µM; with mouse melanoma (B-16) (Table 1A, read-out: Viability IC50 Melanoma B16), 18 µM. For the same compound, in assay [4], the “inhibition of cell proliferation, PC-3 (in words)” value is “effective in inhibition of cell proliferation”.

Consider `CN(C)CCC=C1c2ccccc2CCc2ccccc21` [Amitriptiline], for which the IC50 in the assay with different cell-lines (read-out: IC50 Mean +/− SD) and with mouse melanoma (B-16) (setting [7]) was 64 µM in each case.

With `O=c1[nH]cc(F)c(=O)[nH]1` [5-FU, 5-fluorouracil], in the assay on HaCat keratinocytes, the “cell viability HaCat (in words)” value is “resistant”. For the same compound, the “cell viability HaCat I5 (in words)” value in the assay with HaCat I5 keratinocytes is recorded as “resistant”.

Regarding `O=C(CCCN1CCC(O)(c2ccc(Cl)cc2)CC1)c1ccc(F)cc1` [Haloperidol], in [1] (setting [6]), the IC50 is > 200 µM.

Consider `CN(C)CCCN1c2ccccc2Sc2ccc(Cl)cc21` [Chlorpromazine], for which the IC50 amounted to 15 µM in assay [5] (Table 1A, read-out: Viability IC50 Neuroblastoma SH-SY5T); 45.7 ± 33.3 µM in the assay with different cell-lines (read-out: IC50 Mean ± SD); 22 µM in the assay with rat glioblastoma (C6) (Rattus norvegicus); 46 µM with mouse melanoma (B-16) (setting [8]); 100 µM in assay [3] (Homo sapiens, SK-N-SH, Table 1A).

For `CN(C)CCCN1c2ccccc2CCc2ccccc21` [Imipramine], the IC50 with mouse lung sarcoma (3LL) came out at 12 µM; in assay [5] (Table 1B, read-out: Cell viability IC50 Neuroblastoma SH-SY5T), 69 µM; in the assay on different cell-lines (read-out: IC50 Mean +/− SD), 38.5 µM.

With `CN1CCN(C2=Nc3cc(Cl)ccc3Nc3ccccc32)CC1` [Clozapine], the IC50 in assay [1] (setting [6]) was > 200 µM.

`CN1CCN(CCCN2c3ccccc3Sc3ccc(C(F)(F)F)cc32)CC1` [Trifluoperazine]: the “inhibition of cell proliferation, LN-Cap (in words)” value in assay [2] is reported as “effective in inhibition of cell proliferation”. For the same compound, the IC50 in assay [2] (Homo sapiens, LNCaP) is 18 µM; in assay [4] (Homo sapiens) it was 19 µM; in the assay on different cell-lines (read-out: IC50 Mean ± SD), 16.7 ± 1.9 µM; with rat glioblastoma (C6) (Rattus norvegicus) it was 14 µM; with mouse melanoma (B-16) (setting [8]) it was 16 µM. Further, in assay [4], the “inhibition of cell proliferation, PC-3 (in words)” value is on record as “effective in inhibition of cell proliferation”.

Take `CN1CCN(C2=Nc3ccccc3Sc3ccc(Cl)cc32)CC1` [Clotiapine]: the “cell viability, 3LL lung carcinoma (in words)” value in the assay on mouse lung sarcoma (3LL) (10 μM-100 μM, FIG. 3B, 4B) is listed as “effective in reducing viability”. The IC50 in the assay with mouse lung sarcoma (3LL) is 40 µM; in the assay on HaCat keratinocytes (mean of the determinations, read-out: IC50 HaCat ME), > 100 µM; in the assay on HaCat keratinocytes (single determinations, read-out: IC50 HaCat), > 100 µM; with HaCat I5 keratinocytes (mean of the determinations, read-out: IC50 HaCat I5 ME) it was > 100 µM; in the assay on HaCat I5 keratinocytes (single determinations, read-out: IC50 HaCat I5) it was > 100 µM; with mouse melanoma (B-16) (setting [7]), 45 µM.
